This assay concerns the target SYK (SYK(2-635)) (Homo sapiens (Human), UniProt P43405). As to the kind of experiment: SYK enzyme assay (chip based microfluidic mobility shift assay). To be noted: SYK kinase, 4 μM ATP/peptide solution, 30° C., 60 minutes, Caliper mobility shift. Format: biochemical. The method, then: A number of compounds of the present invention were assayed in a chip based microfluidic mobility shift assay. All assays were performed in 384 well microtiter plates. Each assay plate contained 8-point serial dilutions for 40 test compounds, as well as four 8-point serial dilutions of staurosporine as reference compound, plus 16 high- and 16 low controls. Liquid handling and incubation steps were done on a Thermo CatX workstation equipped with a Innovadyne Nanodrop Express. Between pipetting steps, tips were cleaned in wash cycles using wash buffer. The assay plates were prepared by addition of 50 nl per well of compound solution in 90% DMSO. The kinase reactions were started by stepwise addition of 4.5 μl per well of peptide/ATP-solution (50 mM HEPES, pH 7.5, 1 mM DTT, 0.02% Tween20, 0.02% BSA, 0.6% DMSO, 10 mM beta-glycerophosphate, and 10 μM sodium orthovanadate, 1 mM MgCl2, 3 mM MnCl2, 4 μM ATP, 4 μM peptide (5-Fluo-Ahx-GAPDYENLQELNKK-Amid) and 4.5 μl per well of enzyme solution (50 mM HEPES, pH 7.5, 1 mM DTT, 0.02% Tween20, 0.02% BSA, 0.6% DMSO, 10 mM beta-glycerophosphate, and 10 μM sodium orthovanadate, 1 mM MgCl2, 3 mM MnCl2, 4 nM SYK (SYK(2-635), produced in-house from insect cells). Kinase reactions were incubated at 30° C. for 60 minutes and subsequently terminated by addition of 16 μl per well of stop solution (100 mM HEPES pH 7.5, 5% DMSO, 0.1% Caliper coating reagent, 10 mM EDTA, and 0.015% Brij35). Plates with terminated kinase reactions were transferred to the Caliper LC3000 workstations for reading. Phosphorylated and unphosphorylated peptides were separated using the Caliper microfluidic mobility shift technology. Briefly, samples from terminated kinase reactions were applied to the chip. Analytes are transported through the chip by constant buffer flow and the migration of the substrate peptide is monitored by the fluorescence signal of its label. Phosphorylated peptide (product) and unphosphorylated peptide (substrate) are separated in an electric field by their charge/mass ratio. Kinase activities were calculated from the amounts of formed phospho-peptide. IC50 values were determined from percent inhibition values at different compound concentrations by non-linear regression analysis.
Test compounds were dissolved in DMSO (10 mM) and transferred into 1.4 mL flat bottom or V-shaped Matrix tubes carrying a unique 2D matrix. The stock solutions were stored at […] if not used immediately. For the test procedure the vials were defrosted and identified by a scanner whereby a working sheet was generated that guided the subsequent working steps.
Compound dilutions were made in 96 well plates. This format enabled the assay of maximally 40 individual test compounds at 8 concentrations (single points) including 4 reference compounds. The dilution protocol included the production of “pre-dilution plates”, “master plates” and “assay plates”.
Pre-dilution plates: 96 polypropylene well plates were used as pre-dilution plates. A total of 4 pre-dilution plates were prepared including 10 test compounds each on the plate positions A1-A10, one standard compound at A11 and one DMSO control at A12. All dilution steps were done on a HamiltonSTAR robot.
Master plates: 30 μL of individual compound dilutions including standard compound and controls of the 4 “pre-dilution plates” were transferred into a 384 “master plate” including the following concentrations 1′810, 362, 72.5, […], 14.5, 2.9, 0.58 and 0.12 μM, respectively in 90% of DMSO.
Assay plates: Identical “assay plates” were then prepared by pipetting 50 nL each of compound dilutions of the “master plates” into 384-well “assay plates” by means of a HummingBird 384-channel dispenser. These plates were used directly for the assay which was performed in a total volume of 9.05 μL. This led to a final compound concentration of 10, 2.0, 0.4, 0.08, 0.016, 0.0032, 0.00064 and 0.000128 μM and a final DMSO concentration of 0.5% in the assay.

Among the data in US9315500B2, “Bicyclic heteroaryl cycloalkyldiamine derivatives” (NOVARTIS AG, priority 2012, dated 2016) are IC50 values, retold here.

Structures are written as SMILES.

With `Cc1c[nH]c2c(Nc3nc(N[C@@H]4CCCC[C@@H]4N)cc4cn[nH]c(=O)c34)cc(F)cc12` [Example 2.4, 7-((1R,2S)-2-Amino-cyclohexylamino)-5-(5-fluoro-3-methyl-1H-indol-7-ylamino)-3H-pyrido[3,4-d]pyridazin-4-one], the IC50 is 1.3 nM. For `Cc1c[nH]c2c(Nc3nc(N[C@@H]4CCOC[C@@H]4N)cc4cn[nH]c(=O)c34)cc(F)cc12` [Example 3.3, 7-((3R,4R)-3-Amino-tetrahydro-pyran-4-ylamino)-5-(5-fluoro-3-methyl-1H-indol-7-ylamino)-3H-pyrido[3,4-d]pyridazin-4-one] the value was 2 nM. The value for `N[C@H]1CCCC[C@H]1Nc1cc2cn[nH]c(=O)c2c(Nc2cccc3[nH]ccc23)n1` [Example 2.9, 7-((1R,2S)-2-Amino-cyclohexylamino)-5-(1H-indol-4-ylamino)-3H-pyrido[3,4-d]pyridazin-4-one] was 2.7 nM. `Cc1c[nH]c2c(Nc3nc(N[C@@H]4CCOC[C@@H]4N)cc4cn[nH]c(=O)c34)cccc12` [Example 3.1, 7-((3R,4R)-3-Amino-tetrahydro-pyran-4-ylamino)-5-(3-methyl-1H-indol-7-ylamino)-3H-pyrido[3,4-d]pyridazin-4-one]: the IC50 worked out at 9 nM. The value for `N[C@H]1CCCC[C@H]1Nc1cc2cn[nH]c(=O)c2c(Nc2ccc3cccnc3c2)n1` [Example 2.19, 7-((1R,2S)-2-Amino-cyclohexylamino)-5-(quinolin-7-ylamino)-3H-pyrido[3,4-d]pyridazin-4-one] was 42 nM; that for `N[C@H]1CCCC[C@H]1Nc1cc2cn[nH]c(=O)c2c(Nc2cnc3ccccc3c2)n1` [Example 2.11, 7-((1R,2S)-2-Amino-cyclohexylamino)-5-(quinolin-3-ylamino)-3H-pyrido[3,4-d]pyridazin-4-one] was 5.4 nM. The value for `N[C@H]1CCCC[C@H]1Nc1cc2cn[nH]c(=O)c2c(Nc2cccc3occc23)n1` [Example 2.6, 7-((1R,2S)-2-Amino-cyclohexylamino)-5-(benzofuran-4-ylamino)-3H-pyrido[3,4-d]pyridazin-4-one] was 2 nM; that for `Cc1c[nH]c2c(Nc3nc(N[C@@H]4CCCC[C@@H]4N)cc4cn[nH]c(=O)c34)cccc12` [Example 2.1, 7-((1R,2S)-2-Amino-cyclohexylamino)-5-(3-methyl-1H-indol-7-ylamino)-3H-pyrido[3,4-d]pyridazin-4-one] was 1.6 nM. The value for `N[C@H]1CCCC[C@H]1Nc1cc2cn[nH]c(=O)c2c(Nc2cccc3cc[nH]c23)n1` [Example 2.12, 7-((1R,2S)-2-Amino-cyclohexylamino)-5-(1H-indol-7-ylamino)-3H-pyrido[3,4-d]pyridazin-4-one] was 7 nM.

As to `N[C@H]1CCCC[C@H]1Nc1cc2cn[nH]c(=O)c2c(Nc2cccc3sccc23)n1` [Example 2.7, 7-((1R,2S)-2-Amino-cyclohexylamino)-5-(benzo[b]thiophen-4-ylamino)-3H-pyrido[3,4-d]pyridazin-4-one], the 50% inhibitory concentration (IC50) was 2.1 nM.

Regarding `N[C@H]1COCC[C@H]1Nc1cc2cn[nH]c(=O)c2c(Nc2cccc3cc[nH]c23)n1` [Example 3.4, 7-((3R,4R)-3-Amino-tetrahydro-pyran-4-ylamino)-5-(1H-indol-7-ylamino)-3H-pyrido[3,4-d]pyridazin-4-one], the concentration for half-maximal inhibition (IC50) was 32 nM. For `Cc1c[nH]c2c(Nc3nc(N[C@@H]4CCCC[C@@H]4N)c(F)c4cn[nH]c(=O)c34)cc(F)cc12` [Example 1.1, 7-((1R,2S)-2-Amino-cyclohexylamino)-8-fluoro-5-(5-fluoro-3-methyl-1H-indol-7-ylamino)-3H-pyrido[3,4-d]pyridazin-4-one] the value was 2 nM; for `N[C@H]1CCCC[C@H]1Nc1cc2cn[nH]c(=O)c2c(Nc2cccc3[nH]ncc23)n1` [Example 2.10, 7-((1R,2S)-2-Amino-cyclohexylamino)-5-(1H-indazol-4-ylamino)-3H-pyrido[3,4-d]pyridazin-4-one], 5.2 nM.

As to `N[C@H]1CCCC[C@H]1Nc1nc(Nc2cccc3ncccc23)c2c(=O)[nH]ncc2c1F` [Example 1.2, 7-((1R,2S)-2-Amino-cyclohexylamino)-8-fluoro-5-(quinolin-5-ylamino)-3H-pyrido[3,4-d]pyridazin-4-one], the 50% inhibitory concentration (IC50) was found to be 44 nM. The value for `Cc1cc2c(Nc3nc(N[C@@H]4CCCC[C@@H]4N)cc4cn[nH]c(=O)c34)cccc2[nH]1` [Example 2.17, 7-((1R,2S)-2-Amino-cyclohexylamino)-5-(2-methyl-1H-indol-4-ylamino)-3H-pyrido[3,4-d]pyridazin-4-one] was 16 nM. With `N#Cc1c[nH]c2c(Nc3nc(N[C@@H]4CCCC[C@@H]4N)cc4cn[nH]c(=O)c34)cccc12` [Example 2.14, 7-[7-((1R,2S)-2-Amino-cyclohexylamino)-4-oxo-3,4-dihydro-pyrido[3,4-d]pyridazin-5-ylamino]-1H-indole-3-carbonitrile], the concentration for half-maximal inhibition (IC50) worked out at 8 nM.

For `N[C@H]1CCCC[C@H]1Nc1cc2cn[nH]c(=O)c2c(Nc2cccc3cccnc23)n1` [Example 2.20, 7-((1R,2S)-2-Amino-cyclohexylamino)-5-(quinolin-8-ylamino)-3H-pyrido[3,4-d]pyridazin-4-one], the IC50 is 45 nM. The value for `Cc1ccc2c(Nc3nc(N[C@@H]4CCCC[C@@H]4N)cc4cn[nH]c(=O)c34)cccc2n1` [Example 2.8, 7-((1R,2S)-2-Amino-cyclohexylamino)-5-(2-methyl-quinolin-5-ylamino)-3H-pyrido[3,4-d]pyridazin-4-one] was 2.3 nM; that for `Cc1ccc(Nc2nc(N[C@@H]3CCCC[C@@H]3N)cc3cn[nH]c(=O)c23)c2cc[nH]c12` [Example 2.15, 7-((1R,2S)-2-Amino-cyclohexylamino)-5-(7-methyl-1H-indol-4-ylamino)-3H-pyrido[3,4-d]pyridazin-4-one] was 9 nM. The value for `Cc1ccc(Nc2nc(N[C@@H]3CCCC[C@@H]3N)cc3cn[nH]c(=O)c23)c2cccnc12` [Example 2.13, 7-((1R,2S)-2-Amino-cyclohexylamino)-5-(8-methyl-quinolin-5-ylamino)-3H-pyrido[3,4-d]pyridazin-4-one] was 7 nM.

In the case of `N[C@H]1COCC[C@H]1Nc1cc2cn[nH]c(=O)c2c(Nc2cccc3sccc23)n1` [Example 3.2, 7-((3R,4R)-3-Amino-tetrahydro-pyran-4-ylamino)-5-(benzo[b]thiophen-4-ylamino)-3H-pyrido[3,4-d]pyridazin-4-one], the half-inhibitory concentration (IC50) was determined as 1.8 nM. For `N[C@H]1CCCC[C@H]1Nc1cc2cn[nH]c(=O)c2c(Nc2ccc3ncccc3c2)n1` [Example 2.5, 7-((1R,2S)-2-Amino-cyclohexylamino)-5-(quinolin-6-ylamino)-3H-pyrido[3,4-d]pyridazin-4-one] the value was 1.6 nM; for `N[C@H]1CCCC[C@H]1Nc1cc2cn[nH]c(=O)c2c(Nc2cccc3ncccc23)n1` [Example 2.16, 7-((1R,2S)-2-Amino-cyclohexylamino)-5-(quinolin-5-ylamino)-3H-pyrido[3,4-d]pyridazin-4-one], 9 nM. The value for `Cn1ccc2c(Nc3nc(N[C@@H]4CCCC[C@@H]4N)cc4cn[nH]c(=O)c34)cccc21` [Example 2.2, 7-((1R,2S)-2-Amino-cyclohexylamino)-5-(1-methyl-1H-indol-4-ylamino)-3H-pyrido[3,4-d]pyridazin-4-one] was 0.6 nM.

For the compound `Cn1cc2c(Nc3nc(N[C@@H]4CCCC[C@@H]4N)cc4cn[nH]c(=O)c34)cccc2n1` [Example 2.3, 7-((1R,2S)-2-Amino-cyclohexylamino)-5-(2-methyl-2H-indazol-4-ylamino)-3H-pyrido[3,4-d]pyridazin-4-one], the 50% inhibitory concentration (IC50) was determined as 1.1 nM.
